We go through 14 compounds from patent publication US8580802B2, “Pyrrolo[2,3-D]pyrimidines as inhibitors of Janus kinases” (Vertex Pharmaceuticals Incorporated, priority 2005, dated 2013).

Each structure is given as a SMILES string.

One assay addresses T1, JAK3 (Homo sapiens, UniProt P52333).
T1 sequence (P52333 1-1124): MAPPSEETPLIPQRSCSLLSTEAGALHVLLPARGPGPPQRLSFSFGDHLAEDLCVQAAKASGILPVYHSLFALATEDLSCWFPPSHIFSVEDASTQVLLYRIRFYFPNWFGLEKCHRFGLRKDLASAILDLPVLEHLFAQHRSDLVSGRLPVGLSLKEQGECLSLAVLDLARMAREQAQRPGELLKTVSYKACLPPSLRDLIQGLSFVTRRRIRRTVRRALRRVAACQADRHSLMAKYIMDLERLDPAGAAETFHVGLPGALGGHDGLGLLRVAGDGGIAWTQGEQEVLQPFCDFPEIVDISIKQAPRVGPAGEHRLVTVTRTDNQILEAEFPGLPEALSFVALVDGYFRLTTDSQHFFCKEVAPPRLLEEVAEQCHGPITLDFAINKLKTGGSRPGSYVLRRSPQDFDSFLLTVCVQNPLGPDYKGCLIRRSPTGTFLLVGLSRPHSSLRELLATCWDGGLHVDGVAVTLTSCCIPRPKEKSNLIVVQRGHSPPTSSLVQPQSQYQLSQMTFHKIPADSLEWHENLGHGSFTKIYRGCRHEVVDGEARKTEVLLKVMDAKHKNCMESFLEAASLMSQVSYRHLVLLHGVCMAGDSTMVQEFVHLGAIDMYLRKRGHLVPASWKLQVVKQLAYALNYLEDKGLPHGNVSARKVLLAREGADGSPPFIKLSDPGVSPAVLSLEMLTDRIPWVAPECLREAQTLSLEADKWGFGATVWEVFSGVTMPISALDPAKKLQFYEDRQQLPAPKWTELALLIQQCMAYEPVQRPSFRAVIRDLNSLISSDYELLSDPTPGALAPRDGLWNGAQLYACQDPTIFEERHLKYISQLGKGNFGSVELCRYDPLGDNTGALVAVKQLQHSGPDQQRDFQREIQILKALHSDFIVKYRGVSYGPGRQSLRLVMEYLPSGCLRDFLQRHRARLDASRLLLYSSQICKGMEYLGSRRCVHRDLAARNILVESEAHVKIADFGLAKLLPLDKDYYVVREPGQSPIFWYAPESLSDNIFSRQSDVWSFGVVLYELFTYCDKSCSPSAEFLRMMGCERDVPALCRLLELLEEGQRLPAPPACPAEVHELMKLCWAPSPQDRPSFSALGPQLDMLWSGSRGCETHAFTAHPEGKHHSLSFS
Nature of the assay: JAK3 Inhibition Assay. The following applies: 1 nM JAK3, 1 μM poly(Glu)4Tyr, 5 μM ATP, 25° C.; read-out: enzyme inhibition data (Ki) JAK3. The class given is biochemical. The procedure, abridged: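 Radiometric ^33P incorporation into poly(Glu)4Tyr (1 μM) by 1 nM human JAK3 at 5 μM ATP, in HEPES pH 7.4 buffer with MgCl2, DTT and BSA. Reaction ran 20 min at 25° C, stopped with TCA, then filtered before scintillation counting.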

A further assay addresses JAK2 (Homo sapiens, UniProt O60674). Nature of the assay: JAK2 Inhibition Assay. Format: biochemical. The following applies: JAK-2 enzyme, 15 μM poly(Glu)4Tyr, 12 μM ATP. Summed up:
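Radiometric kinase assay with 1 nM JAK2 in pH 7.4 HEPES buffer (10 mM MgCl2, 1 mM DTT, 0.01% BSA), final 15 μM poly(Glu)4Tyr and 12 μM [33P]-ATP. Run 20 min at 25 °C, stopped with TCA; 33P incorporation captured on glass-fibre filters and read by scintillation counting.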

Chain of JAK2 (O60674 whole entry): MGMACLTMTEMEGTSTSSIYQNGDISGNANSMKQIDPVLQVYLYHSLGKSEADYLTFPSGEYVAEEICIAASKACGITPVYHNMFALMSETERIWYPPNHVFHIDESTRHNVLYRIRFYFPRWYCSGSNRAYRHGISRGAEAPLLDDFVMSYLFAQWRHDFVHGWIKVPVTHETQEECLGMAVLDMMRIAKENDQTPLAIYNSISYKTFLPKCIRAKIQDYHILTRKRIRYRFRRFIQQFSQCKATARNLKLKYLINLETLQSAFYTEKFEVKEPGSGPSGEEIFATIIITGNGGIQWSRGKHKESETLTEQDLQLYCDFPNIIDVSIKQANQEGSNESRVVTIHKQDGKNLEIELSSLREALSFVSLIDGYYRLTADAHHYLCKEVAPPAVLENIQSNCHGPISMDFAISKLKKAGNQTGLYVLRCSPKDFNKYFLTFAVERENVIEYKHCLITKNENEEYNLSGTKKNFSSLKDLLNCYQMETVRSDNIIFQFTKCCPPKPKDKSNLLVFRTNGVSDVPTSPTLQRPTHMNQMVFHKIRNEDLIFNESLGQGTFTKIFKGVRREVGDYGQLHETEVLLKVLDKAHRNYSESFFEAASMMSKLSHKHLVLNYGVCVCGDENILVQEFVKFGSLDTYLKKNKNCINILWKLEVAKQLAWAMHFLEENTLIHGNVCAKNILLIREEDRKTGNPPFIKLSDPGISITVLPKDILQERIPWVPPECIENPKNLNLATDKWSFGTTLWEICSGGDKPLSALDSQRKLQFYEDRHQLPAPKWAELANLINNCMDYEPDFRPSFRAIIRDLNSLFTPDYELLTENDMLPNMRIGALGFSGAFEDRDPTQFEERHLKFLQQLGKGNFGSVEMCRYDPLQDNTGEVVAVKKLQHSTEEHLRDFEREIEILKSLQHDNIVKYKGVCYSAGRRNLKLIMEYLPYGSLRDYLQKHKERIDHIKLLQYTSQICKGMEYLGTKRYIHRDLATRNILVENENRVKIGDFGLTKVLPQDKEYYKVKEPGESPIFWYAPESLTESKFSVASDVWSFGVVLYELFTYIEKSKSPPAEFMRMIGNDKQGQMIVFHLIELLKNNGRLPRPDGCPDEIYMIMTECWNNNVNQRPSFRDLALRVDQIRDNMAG

One may read the Ki as the equilibrium dissociation constant of an inhibitor or competing ligand from its target. For the compound `C[C@@H](Nc1ccnc(-c2c[nH]c3ncncc23)n1)C(=O)NCC(F)(F)F` [Compound 39, (R)-2-(2-(7H-pyrrolo[2,3-d]pyrimidin-5-yl)pyrimidin-4-ylamino)-N-(2,2,2-trifluoroethyl)propanamide], the inhibition constant (Ki) on JAK3 and at JAK2 was under 500 nM each time.
In the case of `O=C(NCC(F)(F)F)[C@H]1C[C@H](O)CN1c1ccnc(-c2c[nH]c3ncncc23)n1` [Compound 94], the Ki at JAK3 and on JAK2 was under 500 nM each time.
`CCOC(=O)c1cc(N[C@@H](C)C(=O)NCC(F)(F)F)nc(-c2c[nH]c3ncncc23)n1` [Compound 2]: the results for the Ki at JAK3 and on JAK2 were 500 to 5000 nM and over 5000 nM, respectively.
Consider `C[C@H](Nc1ccnc(-c2c[nH]c3ncncc23)n1)C(=O)NCC(F)(F)F` [Compound 5, (S)-2-(2-(7H-pyrrolo[2,3-d]pyrimidin-5-yl)pyrimidin-4-ylamino)-N-(2,2,2-trifluoroethyl)propanamide], for which the Ki at JAK3 and at JAK2 was under 500 nM throughout.
In the case of `COC[C@H]1CCCN1c1nc(-c2c[nH]c3ncncc23)ncc1F` [Compound 25, 5-(5-fluoro-4-((R)-2-(methoxymethyl)pyrrolidin-1-yl)pyrimidin-2-yl)-7H-pyrrolo[2,3-d]pyrimidine], the Ki on JAK3 and at JAK2 was 500 to 5000 nM throughout.
As for `O=C(CNc1nc(-c2c[nH]c3ncncc23)ncc1F)NCC(F)(F)F` [Compound 70], the Ki on JAK3 is under 500 nM; at JAK2, 500 to 5000 nM.
Consider `C[C@H](Nc1cc(N2CCOCC2)nc(-c2c[nH]c3ncncc23)n1)C(=O)NCC(F)(F)F` [Compound 36, (S)-2-(6-morpholino-2-(7H-pyrrolo[2,3-d]pyrimidin-5-yl)pyrimidin-4-ylamino)-N-(2,2,2-trifluoroethyl)propanamide], for which the Ki at JAK3 and at JAK2 was over 5000 nM in each case.
As to `N#CCC(=O)N1CC=C(c2cccc(-c3c[nH]c4ncncc34)n2)CC1` [Compound 30, 3-(4-(6-(7H-pyrrolo[2,3-d]pyrimidin-5-yl)pyridin-2-yl)-5,6-dihydropyridin-1(2H)-yl)-3-oxopropanenitrile], the Ki on JAK3 and on JAK2 was under 500 nM each time.
Regarding `C[C@H](Nc1cc(C(=O)N2CCCC2)nc(-c2c[nH]c3ncncc23)n1)C(=O)NCC(F)(F)F` [Compound 9], the Ki on JAK3 is under 500 nM; at JAK2 it was 500 to 5000 nM.
As to `O=C(NCC(F)(F)F)C(CC(F)(F)F)Nc1nc(-c2c[nH]c3ncncc23)ncc1F` (stereo not shown) [Compound 45, 2-(5-fluoro-2-(7H-pyrrolo[2,3-d]pyrimidin-5-yl)pyrimidin-4-ylamino)-4,4,4-trifluoro-N-(2,2,2-trifluoroethyl)butanamide], the Ki at JAK3 and at JAK2 was under 500 nM each time.
As for `O=C(NCC(F)(F)F)[C@H]1CCCN1c1nc(-c2c[nH]c3ncncc23)ncc1F` [Compound 27], the Ki at JAK3 and at JAK2 was under 500 nM in each case.
With `O=C(CCNc1nc(-c2c[nH]c3ncncc23)ncc1F)NCC(F)(F)F` [Compound 71], the inhibition constant (Ki) at JAK3 and on JAK2 was under 500 nM each time.
Take `C[C@H](Nc1cc(C#N)cc(-c2c[nH]c3ncncc23)n1)C(=O)NCC(F)(F)F` [Compound 19, (S)-2-(4-cyano-6-(7H-pyrrolo[2,3-d]pyrimidin-5-yl)pyridin-2-ylamino)-N-(2,2,2-trifluoroethyl)propanamide]: the results for the Ki on JAK3 and at JAK2 were under 500 nM and 500 to 5000 nM, respectively.
For the compound `O=C(NCC(F)(F)F)[C@H]1CCCCN1c1cnc(-c2c[nH]c3ncncc23)nc1` [Compound 54], the Ki on JAK3 and at JAK2 was under 500 nM in each case.
